Test results reported in PubChem BioAssay (NCI).
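Five concentrations, 48 hours, 96-well plates. The concentration for 50% growth inhibition is given as GI50. TGI denotes the concentration required for complete inhibition of growth.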

Tested on: MDA-MB-468 breast
Assay: NCI tumour cell line growth inhibition, 48 h

Structure (SMILES)	GI50	TGI
c1ccc(-c2nn3c(c2-c2ccnc4cc(OCCN5CCOCC5)ccc24)CCC3)nc1	30900 nM	> 100000 nM
CN(C)c1ccc(Nc2c3ccccc3nc3ccccc23)cc1	632 nM	2110 nM
CCn1c(=O)c2nc(SC)sc2n(-c2ccc(C)cc2)c1=O	62000 nM	> 100000 nM
COc1c(C(C)=O)c(OCCCCOc2c(C(C)=O)c(OC)c3ccoc3c2OC)c(OC)c2occc12	2310 nM	> 100000 nM
COc1cccc2c1C=CC1(O2)Oc2cccc(OC)c2C=C1C (configuration not stated)	402 nM	> 100000 nM
O=[N+]([O-])c1cc[n+]([O-])c2ccccc12	135 nM	324 nM
Cc1ccc(/C=C/c2c(C(=O)/C=C/c3ccccc3)c(C)nc3ccccc23)cc1	1800 nM	3470 nM
O=C1CCc2c(sc3[nH]c(=S)n(-c4cc(C(F)(F)F)cc(C(F)(F)F)c4)c(=O)c23)C1	248 nM	768 nM
Cc1ccc(/C=C(\C#N)c2cc3ccccc3n2C)cc1	406 nM	> 100000 nM
COC(=O)c1cc(-c2ccccc2)[nH]c1N/N=C/c1c(Cl)cccc1Cl	185 nM	
O=C(CCN1CCCC1)Nc1ccc2c(NCc3ccccc3)c3ccccc3nc2c1	274 nM	1060 nM
Cc1ccc(S(=O)(=O)Oc2ccc3c4c(c(=O)oc3c2)CCCCCC4)cc1	2040 nM	> 100000 nM
NC(=N\N=C/c1ccc(O)cc1)/C(N)=N\N=C/c1ccc(O)cc1	> 100000 nM	> 100000 nM
O=C(Nc1ccc(F)c(F)c1)c1cc(-c2ccc(F)cc2F)ccc1O	1120 nM	4350 nM
COc1ccc(-c2cc(=O)n(-c3nc4ccccc4[nH]3)[nH]2)cc1OC	4300 nM	44700 nM
CCCCNNC(=O)c1ccc(Br)cc1	1710 nM	> 50000 nM
C=C(C)[C@@H]1CCC=C2CC[C@]3(C)[C@H](CC[C@@H]4[C@@]5(C)CCCNC(C)(C)[C@@H]5CC[C@]43C)[C@H]21	1610 nM	3100 nM
CCCCCCCCCCCC1=NC(C)(C)CN1C(C)(C)CO	1820 nM	3670 nM
CCOc1ccc2c(-c3ccnc(Nc4cc(OC)cc(C(F)(F)F)c4)n3)cnn2n1	836 nM	> 20500 nM
CCC(=O)N1C/C(=C/c2ccc(Cl)cc2)C(=O)/C(=C/c2ccc(Cl)cc2)C1	704 nM	2080 nM
CN(C)C(=O)Nc1nc2cc(Cl)c(Cl)cc2[nH]1	537 nM	> 91000 nM
Cc1ccc2nc3ccccc3c(NCc3ccc(Cl)cc3)c2c1	1630 nM	6380 nM

Structure (SMILES)	GI50	TGI
COc1ccc2c(c1)nc(NNC(=O)c1cnccn1)c1cccn12	227 nM	1660 nM
C=C1C(=O)O[C@H]2[C@H]1CC/C(COC(=O)CCCCCC(=O)OC/C1=C/CC[C@@]3(C)O[C@H]3[C@H]3OC(=O)C(=C)[C@@H]3CC1)=C\CC[C@@]1(C)O[C@@H]21	1840 nM	7100 nM
CC1=CC2C(C(O)CC3(C)C2CC(C)C32OCOC23COCO3)C2(C)C/C(=C/O)C(=O)C=C12 (configuration not stated)	1790 nM	3470 nM
Oc1c(C(Nc2ccccc2Br)c2ccccc2)ccc2cccnc12 (configuration not stated)	1520 nM	6120 nM
N#Cc1nc(-c2ccc(F)cc2)oc1S(=O)(=O)N1CCCCC1	1640 nM	3300 nM
Fc1ccc(-c2ncn(C3CCNCC3)c2-c2ccnc(Oc3ccc4c(c3)OCO4)n2)cc1	3190 nM	8020 nM
O=c1c2cc(C(F)(F)F)ccc2sc2c(NCCCNCCO)nc3ccccc3c12	1570 nM	3130 nM
Cc1cn2c(/C=C3/C(=O)Nc4c3ccc3ccccc43)c(C(F)(F)F)nc2s1	1460 nM	> 100000 nM
Cc1cc2ncc(-c3cc4ccccc4c(N4CCN(C)CC4)n3)nc2cc1C	2120 nM	5110 nM
O=C(O)C[C@H](O)C[C@H](O)/C=C/c1c(C2CC2)nc2ccccc2c1-c1ccc(F)cc1	2370 nM	12100 nM
O=C(NCCN1CCOCC1)OCc1nc2nc(Cl)nc(N3CCOCC3)c2[nH]1	375 nM	3790 nM
C=C(C)[C@@H]1CC[C@]2(COP(=O)(OCC)OCC)CC[C@]3(C)[C@H](CC[C@@H]4[C@@]5(C)CCCNC(C)(C)[C@@H]5CC[C@]43C)[C@@H]12	1390 nM	2910 nM
CCOC(=O)NC1CCc2cc(OC)c(OC)c(OC)c2-c2ccc(OC)c(=O)cc21 (configuration not stated)	548 nM	> 100000 nM
COC(=O)c1c2c(c(C)[n+]([O-])c1C)C(=O)C=C(NCc1ccccc1)C2=O	266 nM	1140 nM
Nc1ccn(C2CC(F)C(CO)O2)c(=O)n1 (configuration not stated)	> 100000 nM	> 100000 nM
COc1ccc(/C=C(/c2ccccc2)[N+](=O)[O-])c(OC)c1	1510 nM	3400 nM
COc1ccc(C(=O)Cn2c(C(=O)c3ccccc3)nc3ccccc32)cc1	817 nM	5770 nM
C/C(=C\c1ccn(-c2ccccc2N)n1)[C@@H]1C[C@@H]2O[C@]2(C)CCC[C@H](C)[C@H](O)[C@@H](C)C(=O)C(C)(C)[C@@H](O)CC(=O)O1	35.7 nM	732 nM
CNC(=O)NCC1OC(n2cnc3c(NC(=O)Nc4ccccc4)ncnc32)C(O[Si](C)(C)C(C)(C)C)C1O[Si](C)(C)C(C)(C)C (configuration not stated)	3350 nM	13900 nM
CC(C)(C)c1ccc(C(O)CCCN2CCC(C(O)(c3ccccc3)c3ccccc3)CC2)cc1 (configuration not stated)	1150 nM	2450 nM
COc1ccc([C@H](CC(=O)O)N2CCN(CCCc3ccc4c(n3)NCCC4)C2=O)cn1	111 nM	479 nM
C=CC(=O)N1CCC(c2ccc(C(N)=O)c(-c3ccc(Oc4ccccc4)cc3)n2)CC1	5760 nM	49500 nM
